# What was measured:
# [1] = test system: SARS-COV-2; assay: Survival and body weight of SARS-COV-2-infected Balb/c mice; type: in vivo; settings: preventive administration of inosine
# [2] = test system: SARS-COV-2; assay: Lung tissue pathology by H&E staining in SARS-COV-2-infected mice; type: in vivo, mouse; settings: oral inosine administration group vs SARS-COV-2 infection group
# Description: The effect of inosine on pathological changes of lung tissue was observed by hematoxylin and eosin (H&E) staining.
# [3] = test system: IL-6; assay: Serum cytokine IL-6 level by ELISA in SARS-COV-2-infected mice; type: in vivo, mouse; settings: inosine group
# Procedure: In the process of cytokine storm (CRS), IL-6 is one of the most critical cytokines, and severity of the CRS is closely related to the increase in IL-6. In the cytokine storm induced by SARS-COV-2, IL-6 plays an important role. In order to determine whether the inosine could inhibit the secretion of IL-6, the level of cytokine IL-6 in mouse serum was determined by ELISA.
smiles,measurement,setting,value
OC[C@H]1O[C@@H](n2cnc3c(O)ncnc32)[C@H](O)[C@@H]1O [inosine],day after infection on which body weights regained gradually,[1],8 days
same,weight loss,[1]; vs model group,lower weight loss
same,survival time of the Balb/c mice,[1]; vs model group (died on days 4-7),significantly prolonged
same,inflammatory infiltration of lung tissue,[2],significantly improved
same,pathological changes of lung tissue (H&E staining),[2],"the lung tissues were structurally intact, alveolar space was clear, no congestion was noted in the pulmonary alveolar wall"
same,level of cytokine IL-6 in mouse serum,[3],could inhibit the high expression of SARS-COV-2 induced IL-6
